Measured values published in paper PMC4490784, “Compensatory induction of MYC expression by sustained CDK9 inhibition via a BRD4-dependent mechanism” (eLife, 2015).

Columns and labels:
Test in all cases: KINOMEscan binding assay
[1] = target: T1, ABL1(T315I)-phosphorylated (Homo sapiens, UniProt P00519, T315I); settings: 1 µM i-CDK9; read-out: % Retention on Solid Support
T1 construct: purchased DiscoveRx KINOMEscan
Summary of the method: (§1)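 Active site-directed competition binding measured kinase engagement within a panel of over 400 kinases. i-CDK9 was tested at two concentrations, 1 and 10 µM.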

BRK = target: T2, BRK (Homo sapiens, UniProt Q13882); settings: read-out: % Retention on Solid Support
T2 construct: purchased DiscoveRx KINOMEscan
T2 sequence (Q13882 whole entry): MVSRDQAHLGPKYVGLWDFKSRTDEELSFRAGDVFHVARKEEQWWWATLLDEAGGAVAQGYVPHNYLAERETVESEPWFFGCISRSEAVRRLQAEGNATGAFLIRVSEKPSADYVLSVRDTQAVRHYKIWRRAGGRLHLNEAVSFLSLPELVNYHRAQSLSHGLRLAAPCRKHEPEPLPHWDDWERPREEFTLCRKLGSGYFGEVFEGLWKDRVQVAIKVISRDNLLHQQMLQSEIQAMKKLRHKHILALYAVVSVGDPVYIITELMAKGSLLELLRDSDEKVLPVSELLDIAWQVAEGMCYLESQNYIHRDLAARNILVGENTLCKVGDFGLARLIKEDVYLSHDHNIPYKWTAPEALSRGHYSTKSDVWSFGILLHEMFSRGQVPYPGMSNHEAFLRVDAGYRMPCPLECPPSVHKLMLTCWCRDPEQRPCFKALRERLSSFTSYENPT
Summary of the method: as §1

CDC2L2 = target: T3, CDC2L2 (Homo sapiens, UniProt Q9UQ88); settings: read-out: % Retention on Solid Support
T3 construct: purchased DiscoveRx KINOMEscan
Summary of the method: as §1

CSNK1E = target: T4, CSNK1E (Homo sapiens, UniProt P49674); settings: read-out: % Retention on Solid Support
T4 construct: purchased DiscoveRx KINOMEscan
T4 sequence (P49674 whole entry): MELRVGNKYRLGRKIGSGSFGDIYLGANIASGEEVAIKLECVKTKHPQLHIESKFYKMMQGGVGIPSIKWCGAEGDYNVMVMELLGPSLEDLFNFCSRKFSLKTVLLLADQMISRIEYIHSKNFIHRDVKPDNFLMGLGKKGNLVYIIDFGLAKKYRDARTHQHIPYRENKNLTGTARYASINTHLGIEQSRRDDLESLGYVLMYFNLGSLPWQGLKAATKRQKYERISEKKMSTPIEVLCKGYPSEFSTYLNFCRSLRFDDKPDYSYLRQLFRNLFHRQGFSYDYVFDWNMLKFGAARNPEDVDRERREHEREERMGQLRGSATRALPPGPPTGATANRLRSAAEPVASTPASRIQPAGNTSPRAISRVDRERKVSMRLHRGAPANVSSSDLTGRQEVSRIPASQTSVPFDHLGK
Summary of the method: as §1

DRAK1 = target: T5, DRAK1 (Homo sapiens, UniProt Q9UEE5); settings: read-out: % Retention on Solid Support
T5 construct: purchased DiscoveRx KINOMEscan
T5 sequence (Q9UEE5 whole entry): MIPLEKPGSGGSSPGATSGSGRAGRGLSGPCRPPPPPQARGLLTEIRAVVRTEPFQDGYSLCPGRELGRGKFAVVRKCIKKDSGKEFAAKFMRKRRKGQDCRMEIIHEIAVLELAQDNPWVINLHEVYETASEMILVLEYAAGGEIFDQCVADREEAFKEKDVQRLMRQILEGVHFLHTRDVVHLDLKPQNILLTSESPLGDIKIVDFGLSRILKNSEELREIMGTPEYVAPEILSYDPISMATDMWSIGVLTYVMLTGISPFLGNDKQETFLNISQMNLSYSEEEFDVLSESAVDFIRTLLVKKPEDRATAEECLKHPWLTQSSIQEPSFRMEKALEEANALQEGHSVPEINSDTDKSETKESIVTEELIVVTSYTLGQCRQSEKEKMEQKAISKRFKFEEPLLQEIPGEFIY
Summary of the method: as §1

EPHA3 = target: T6, EPHA3 (Homo sapiens, UniProt P29320); settings: read-out: % Retention on Solid Support
T6 construct: purchased DiscoveRx KINOMEscan
Summary of the method: as §1

FLT3 = target: T7, FLT3 (Homo sapiens, UniProt P36888); settings: read-out: % Retention on Solid Support
T7 construct: purchased DiscoveRx KINOMEscan
Summary of the method: as §1

ICK = target: T8, ICK (Homo sapiens, UniProt Q9UPZ9); settings: read-out: % Retention on Solid Support
T8 construct: purchased DiscoveRx KINOMEscan
Summary of the method: as §1

KIT(D816V) = target: T9, KIT(D816V) (Homo sapiens, UniProt P10721, D816V); settings: read-out: % Retention on Solid Support
T9 construct: purchased DiscoveRx KINOMEscan
Summary of the method: as §1

KIT(V559D,T670I) = target: T10, KIT(V559D,T670I) (Homo sapiens, UniProt P10721, T670I/V559D); settings: read-out: % Retention on Solid Support
T10 construct: purchased DiscoveRx KINOMEscan
Summary of the method: as §1

LOK = target: T11, LOK (Homo sapiens, UniProt O94804)
T11 construct: purchased DiscoveRx KINOMEscan
Summary of the method: as §1

NDR2 = target: T12, NDR2 (Homo sapiens, UniProt Q9Y2H1); settings: read-out: % Retention on Solid Support
T12 construct: purchased DiscoveRx KINOMEscan
T12 sequence (Q9Y2H1 whole entry): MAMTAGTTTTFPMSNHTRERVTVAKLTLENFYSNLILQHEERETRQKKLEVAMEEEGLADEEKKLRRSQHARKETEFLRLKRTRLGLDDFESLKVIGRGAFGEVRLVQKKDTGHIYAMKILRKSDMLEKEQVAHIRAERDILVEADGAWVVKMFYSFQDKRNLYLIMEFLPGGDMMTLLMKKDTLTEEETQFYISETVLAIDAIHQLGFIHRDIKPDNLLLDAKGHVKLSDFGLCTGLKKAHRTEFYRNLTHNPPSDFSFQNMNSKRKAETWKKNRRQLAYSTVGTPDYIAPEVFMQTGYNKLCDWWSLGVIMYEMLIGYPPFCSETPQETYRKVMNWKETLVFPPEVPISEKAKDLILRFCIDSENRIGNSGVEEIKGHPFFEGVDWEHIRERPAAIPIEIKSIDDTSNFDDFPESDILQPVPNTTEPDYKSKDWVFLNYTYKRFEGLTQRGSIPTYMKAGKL
Summary of the method: as §1

NEK11 = target: T13, NEK11 (Homo sapiens, UniProt Q8NG66); settings: 1 µM i-CDK9; read-out: % Retention on Solid Support
T13 construct: purchased DiscoveRx KINOMEscan
Summary of the method: as §1

PRKD1 = target: T14, PRKD1 (Homo sapiens, UniProt Q15139); settings: read-out: % Retention on Solid Support
T14 construct: purchased DiscoveRx KINOMEscan
Summary of the method: as §1

PRKR = target: T15, PRKR (Homo sapiens, UniProt P19525)
T15 construct: purchased DiscoveRx KINOMEscan
T15 sequence (P19525 whole entry): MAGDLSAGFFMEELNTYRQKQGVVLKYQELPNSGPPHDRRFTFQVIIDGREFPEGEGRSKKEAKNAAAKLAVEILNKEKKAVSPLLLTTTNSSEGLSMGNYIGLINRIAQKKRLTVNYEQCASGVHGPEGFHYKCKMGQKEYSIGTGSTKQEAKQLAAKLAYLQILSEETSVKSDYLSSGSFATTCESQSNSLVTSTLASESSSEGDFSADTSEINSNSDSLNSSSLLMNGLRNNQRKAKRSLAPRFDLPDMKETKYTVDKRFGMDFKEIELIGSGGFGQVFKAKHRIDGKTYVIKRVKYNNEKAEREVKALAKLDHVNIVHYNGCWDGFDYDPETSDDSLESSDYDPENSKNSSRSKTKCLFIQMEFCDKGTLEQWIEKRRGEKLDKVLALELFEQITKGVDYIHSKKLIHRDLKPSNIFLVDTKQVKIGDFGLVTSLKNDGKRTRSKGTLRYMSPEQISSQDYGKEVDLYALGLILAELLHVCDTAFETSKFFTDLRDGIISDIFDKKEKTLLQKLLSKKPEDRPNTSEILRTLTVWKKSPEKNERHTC
Summary of the method: as §1

PRP4 = target: T16, PRP4 (Homo sapiens, UniProt Q13523); settings: read-out: % Retention on Solid Support
T16 construct: purchased DiscoveRx KINOMEscan
T16 sequence (Q13523 whole entry): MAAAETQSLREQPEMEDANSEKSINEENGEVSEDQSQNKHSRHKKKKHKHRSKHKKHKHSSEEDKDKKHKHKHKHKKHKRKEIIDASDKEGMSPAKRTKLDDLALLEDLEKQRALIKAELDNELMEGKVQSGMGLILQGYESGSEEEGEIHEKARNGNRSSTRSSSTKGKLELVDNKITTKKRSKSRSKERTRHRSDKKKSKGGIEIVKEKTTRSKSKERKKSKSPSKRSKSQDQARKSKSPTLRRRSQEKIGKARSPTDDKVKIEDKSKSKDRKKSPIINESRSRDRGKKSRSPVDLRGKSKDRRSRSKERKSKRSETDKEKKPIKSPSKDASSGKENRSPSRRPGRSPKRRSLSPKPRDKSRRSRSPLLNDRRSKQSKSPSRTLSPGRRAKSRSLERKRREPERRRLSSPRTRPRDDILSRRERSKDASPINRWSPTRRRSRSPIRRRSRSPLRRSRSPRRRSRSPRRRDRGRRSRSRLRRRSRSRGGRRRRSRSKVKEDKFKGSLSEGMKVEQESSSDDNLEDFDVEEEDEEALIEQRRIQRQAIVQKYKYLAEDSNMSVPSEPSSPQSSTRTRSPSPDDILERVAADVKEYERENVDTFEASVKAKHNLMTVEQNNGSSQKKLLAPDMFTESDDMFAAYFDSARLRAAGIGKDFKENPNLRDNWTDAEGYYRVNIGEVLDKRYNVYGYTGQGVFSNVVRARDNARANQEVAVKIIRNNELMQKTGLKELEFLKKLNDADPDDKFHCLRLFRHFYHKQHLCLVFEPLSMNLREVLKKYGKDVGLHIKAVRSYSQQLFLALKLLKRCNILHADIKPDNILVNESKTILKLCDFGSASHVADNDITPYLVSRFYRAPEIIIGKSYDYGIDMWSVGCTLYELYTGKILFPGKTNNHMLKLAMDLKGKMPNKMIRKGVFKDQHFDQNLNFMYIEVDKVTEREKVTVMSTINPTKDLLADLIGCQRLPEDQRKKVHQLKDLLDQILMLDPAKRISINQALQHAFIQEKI
Summary of the method: as §1

SRPK3 = target: T17, SRPK3 (Homo sapiens, UniProt Q9UPE1); settings: read-out: % Retention on Solid Support
T17 construct: purchased DiscoveRx KINOMEscan
Summary of the method: as §1

TAOK3 = target: T18, TAOK3 (Homo sapiens, UniProt Q9H2K8); settings: read-out: % Retention on Solid Support
T18 construct: purchased DiscoveRx KINOMEscan
T18 sequence (Q9H2K8 1-898): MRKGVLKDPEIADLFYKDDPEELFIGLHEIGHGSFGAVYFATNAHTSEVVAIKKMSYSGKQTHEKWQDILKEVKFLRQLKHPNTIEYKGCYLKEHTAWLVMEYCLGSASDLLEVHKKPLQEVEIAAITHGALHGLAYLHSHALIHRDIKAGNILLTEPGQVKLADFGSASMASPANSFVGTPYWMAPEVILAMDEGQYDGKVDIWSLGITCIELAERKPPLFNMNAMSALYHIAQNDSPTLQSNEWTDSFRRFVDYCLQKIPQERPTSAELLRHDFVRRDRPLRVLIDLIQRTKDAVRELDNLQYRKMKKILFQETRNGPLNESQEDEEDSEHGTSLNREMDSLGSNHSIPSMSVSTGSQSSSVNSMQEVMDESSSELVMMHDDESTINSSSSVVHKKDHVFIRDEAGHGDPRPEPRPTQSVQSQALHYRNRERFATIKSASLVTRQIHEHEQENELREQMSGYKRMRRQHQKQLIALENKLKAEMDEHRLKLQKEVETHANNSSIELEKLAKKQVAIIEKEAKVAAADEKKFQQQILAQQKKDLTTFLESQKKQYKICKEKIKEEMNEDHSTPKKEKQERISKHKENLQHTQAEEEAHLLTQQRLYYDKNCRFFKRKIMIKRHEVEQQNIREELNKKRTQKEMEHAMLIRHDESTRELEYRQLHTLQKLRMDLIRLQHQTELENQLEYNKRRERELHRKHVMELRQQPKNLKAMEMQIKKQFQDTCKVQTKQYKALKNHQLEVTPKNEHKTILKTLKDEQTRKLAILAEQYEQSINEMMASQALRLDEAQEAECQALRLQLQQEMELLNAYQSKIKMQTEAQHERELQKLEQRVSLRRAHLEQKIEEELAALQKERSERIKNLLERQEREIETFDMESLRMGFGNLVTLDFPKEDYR
Summary of the method: as §1

TGFBR2 = target: T19, TGFBR2 (Homo sapiens, UniProt P37173); settings: read-out: % Retention on Solid Support
T19 construct: purchased DiscoveRx KINOMEscan
T19 sequence (P37173 23-567): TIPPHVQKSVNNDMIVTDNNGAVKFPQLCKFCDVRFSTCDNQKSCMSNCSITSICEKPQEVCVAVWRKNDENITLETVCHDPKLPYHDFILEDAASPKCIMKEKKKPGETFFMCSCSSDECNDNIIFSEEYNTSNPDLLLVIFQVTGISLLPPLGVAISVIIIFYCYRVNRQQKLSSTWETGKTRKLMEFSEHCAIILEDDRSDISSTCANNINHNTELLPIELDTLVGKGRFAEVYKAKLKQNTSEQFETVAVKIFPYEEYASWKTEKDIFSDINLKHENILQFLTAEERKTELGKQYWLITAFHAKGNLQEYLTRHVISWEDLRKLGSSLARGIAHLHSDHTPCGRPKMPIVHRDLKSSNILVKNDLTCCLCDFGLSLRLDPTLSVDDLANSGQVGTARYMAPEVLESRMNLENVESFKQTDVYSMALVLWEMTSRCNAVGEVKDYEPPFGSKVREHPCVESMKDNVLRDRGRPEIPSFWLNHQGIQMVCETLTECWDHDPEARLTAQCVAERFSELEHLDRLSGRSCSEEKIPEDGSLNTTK
Summary of the method: as §1

TTK = target: T20, TTK (Homo sapiens, UniProt P33981); settings: read-out: % Retention on Solid Support
T20 construct: purchased DiscoveRx KINOMEscan
T20 sequence (P33981 whole entry): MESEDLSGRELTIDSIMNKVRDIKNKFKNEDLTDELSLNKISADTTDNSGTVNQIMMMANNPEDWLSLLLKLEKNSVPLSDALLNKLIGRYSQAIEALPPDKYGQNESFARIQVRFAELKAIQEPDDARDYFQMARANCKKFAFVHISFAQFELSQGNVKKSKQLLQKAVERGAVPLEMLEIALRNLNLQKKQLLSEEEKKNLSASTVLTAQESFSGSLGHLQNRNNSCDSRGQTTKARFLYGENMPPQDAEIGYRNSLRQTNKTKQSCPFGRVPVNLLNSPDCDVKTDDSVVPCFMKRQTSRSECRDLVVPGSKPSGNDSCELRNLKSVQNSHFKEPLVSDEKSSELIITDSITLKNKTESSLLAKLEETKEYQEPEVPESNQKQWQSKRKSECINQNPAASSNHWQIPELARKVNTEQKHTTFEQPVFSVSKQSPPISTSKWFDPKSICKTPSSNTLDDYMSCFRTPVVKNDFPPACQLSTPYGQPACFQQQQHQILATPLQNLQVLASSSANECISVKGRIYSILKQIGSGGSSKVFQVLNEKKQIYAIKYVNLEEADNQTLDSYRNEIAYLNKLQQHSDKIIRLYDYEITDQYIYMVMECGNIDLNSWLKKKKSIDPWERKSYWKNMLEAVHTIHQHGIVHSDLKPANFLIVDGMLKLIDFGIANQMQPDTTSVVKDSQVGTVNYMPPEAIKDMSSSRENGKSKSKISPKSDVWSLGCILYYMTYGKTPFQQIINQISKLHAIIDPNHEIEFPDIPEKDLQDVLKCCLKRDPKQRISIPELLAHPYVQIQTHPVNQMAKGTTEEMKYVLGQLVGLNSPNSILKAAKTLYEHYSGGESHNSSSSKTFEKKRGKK
Summary of the method: as §1

Work on `N[C@H]1CC[C@H](Nc2cc(-c3cccc(NCc4cccc(F)c4)n3)c(Cl)cn2)CC1` [i-CDK9, N2′-(trans-4-aminocyclohexyl)-5′-chloro-N6-(3-fluorobenzyl)-2,4′-bipyridine-2′,6-diamine] yielded a remaining binding at 1 µM [1] of 100%, a remaining binding at 1 µM (BRK; 1 µM i-CDK9) of 70% and a remaining binding at 10 µM (BRK; 10 µM i-CDK9) of 100%. It also gave a remaining binding at 1 µM (CDC2L2; 1 µM i-CDK9) of 100%, a remaining binding at 10 µM (CDC2L2; 10 µM i-CDK9) of 33% and a remaining binding at 1 µM (CSNK1E; 1 µM i-CDK9) of 100%. The remaining binding at 10 µM (CSNK1E; 10 µM i-CDK9) was 45%, the remaining binding at 1 µM (DRAK1; 1 µM i-CDK9) was 90% and the remaining binding at 10 µM (DRAK1; 10 µM i-CDK9) was 48%. The remaining binding at 1 µM (EPHA3; 1 µM i-CDK9) was 85%, the remaining binding at 10 µM (EPHA3; 10 µM i-CDK9) was 100% and the remaining binding at 1 µM (FLT3; 1 µM i-CDK9) was 78%. The remaining binding at 10 µM (FLT3; 10 µM i-CDK9) was 100%, the remaining binding at 1 µM (ICK; 1 µM i-CDK9) was 85% and the remaining binding at 10 µM (ICK; 10 µM i-CDK9) was 3%. The remaining binding at 1 µM (KIT(D816V); 1 µM i-CDK9) was 100%, the remaining binding at 10 µM (KIT(D816V); 10 µM i-CDK9) was 100% and the remaining binding at 1 µM (KIT(V559D,T670I); 1 µM i-CDK9) was 95%. The remaining binding at 10 µM (KIT(V559D,T670I); 10 µM i-CDK9) was 100%, the “% Retention on Solid Support” value (LOK; 1 µM i-CDK9) was 89% and the “% Retention on Solid Support” value (LOK; 10 µM i-CDK9) was 100%. It also gave a remaining binding at 1 µM (NDR2; 1 µM i-CDK9) of 95%, a remaining binding at 10 µM (NDR2; 10 µM i-CDK9) of 100% and a remaining binding at 1 µM (NEK11) of 100%. The remaining binding at 1 µM (PRKD1; 1 µM i-CDK9) was 55%, the remaining binding at 10 µM (PRKD1; 10 µM i-CDK9) was 20% and the “% Retention on Solid Support” value (PRKR; 1 µM i-CDK9) was 84%. The “% Retention on Solid Support” value (PRKR; 10 µM i-CDK9) was 100%, the remaining binding at 1 µM (PRP4; 1 µM i-CDK9) was 14% and the remaining binding at 10 µM (PRP4; 10 µM i-CDK9) was 100%. It also gave a remaining binding at 1 µM (SRPK3; 1 µM i-CDK9) of 100%, a remaining binding at 10 µM (SRPK3; 10 µM i-CDK9) of 100% and a remaining binding at 1 µM (TAOK3; 1 µM i-CDK9) of 12%. It also gave a remaining binding at 10 µM (TAOK3; 10 µM i-CDK9) of 1.2%, a remaining binding at 1 µM (TGFBR2; 1 µM i-CDK9) of 87% and a remaining binding at 10 µM (TGFBR2; 10 µM i-CDK9) of 100%. It also gave a remaining binding at 1 µM (TTK; 1 µM i-CDK9) of 100% and a remaining binding at 10 µM (TTK; 10 µM i-CDK9) of 100%.
